# Legend:
# [1] = test system: various bacteria; conditions: cited from earlier work
# [2] = test system: variety of microorganisms; conditions: cited from earlier work
# [3] = Serum concentration of florfenicol after subcutaneous injection to an animal; assay type: in vivo
# Description: A lower Cmax advantageously avoids undesirable side-effects.
# [4] = added to serum in vitro; compared with florfenicol butyrate
smiles,measurement,setting,value
CS(=O)(=O)c1ccc([C@@H](O)[C@@H](CF)NC(=O)C(Cl)Cl)cc1 [florfenicol],typical minimum inhibitory concentrations (MICs),[1],0.3 to 1 µg/mL
same,activity against microorganisms,"[2]; Citrobacter, Proteus mirabilis, Proteus sp., Shigella, Salmonella, Providencia, Bacteroides, Staphylococcos aureus, Enterococci, Pasteurlla haemolytica, Pasteurella multocida, Haemophilus somnus, Haemophilus influenza",active
same,resistance of microorganisms to the substance,"[2]; Serratia marcescens, Pseudomonas aeruginosa, Acinetobacter",resistant
COCCOCC(=O)O[C@H](c1ccc(S(C)(=O)=O)cc1)[C@@H](CF)NC(=O)C(Cl)Cl [formula (Ia)],Cmax for the serum concentration of florfenicol,"[3]; administered to an animal, compared with florfenicol",lower than the Cmax for the serum concentration of florfenicol when florfenicol is administered
same,time period for which serum concentration of florfenicol is therapeutically effective,"[3]; subcutaneous injection, compared with florfenicol or florfenicol butyrate",longer
same,rate of hydrolysis in serum,[4],hydrolyzed faster than florfenicol butyrate
CN(C)CC(=O)OC(c1ccc(S(C)(=O)=O)cc1)C(CF)NC(=O)C(Cl)Cl (stereo not shown) [formula (Ib)],pharmacokinetic and pharmacodynamic profile,"[3]; when administered to an animal, expected, compared with florfenicol and other florfenicol esters",superior pharmacokinetic and pharmacodynamic profile

# From patent US7550625B2, “Esters of florfenicol” (priority 2007, dated 2009)
